Data from patent US11174245B2, “Benzimidazole compounds and derivatives as EGFR inhibitors” (Boehringer Ingelheim International GmbH, priority 2018, dated 2021).
pIC50: −log10 of the molar value. Read-outs that look alike come from different tables or passages of the source.

Experiments:
[1] = test system: Ba/F3 cells EGFR-indep. + IL-3; assay: Ba/F3 proliferation assay (CellTiter-Glo viability), EGFR-independent cells with IL-3; format: cell-based, murine; settings: Mus musculus, BaF3, Ba/F3 EGFR-independent + IL-3
Description: (§1) Plasmids containing EGFR mutants were obtained from GeneScript. To generate EGFR-dependent […] were transduced with retroviruses containing vectors that harbor EGFR isoforms. Platinum-E cells (Cell Biolabs) were used for retrovirus packaging. Retrovirus was added to Ba/F3 cells. To ensure infection, 4 μg/mL polybrene was added and cells were spinfected. Infection efficiency was confirmed by measuring GFP-positive cells using a cell analyzer. Cells with an infection efficiency of 10% to 20% were further cultivated and puromycin selection with 1 μg/mL was initiated. As a control, parental Ba/F3 cells were used to show selection status. Selection was considered successful when parental Ba/F3 cells cultures died. To evaluate the transforming potential of EGFR mutations, the growth medium was no longer supplemented with IL-3. Ba/F3 cells harboring the empty vector were used as a control. A switch from IL-3 to EGF was performed for Ba/F3 cells with the wildtype EGFR known for its dependency on EGF ligand. Approximately ten days before conducting the experiments, puromycin was left out. For proliferation assays (data in table 13), Ba/F3 cells were seeded into 96-well plates at 5×10^3 cells/100 μL in growth media. Compounds were added by using a HP D3000 Digital Dispenser. All treatments were performed in technical triplicates. Treated cells were incubated for 72 h at 37° C. with 5% CO2. CellTiter-Glo® Luminescent Cell Viability Assay (Promega) was performed and chemoluminescence was measured by using the multilabel Plate Reader VICTOR X4. The raw data were imported into and analyzed with the Boehringer Ingelheim proprietary software MegaLab (curve fitting based on the program PRISM, GraphPad Inc.).

[2] = test system: Ba/F3 cells driven by EGFR mutants; assay: Ba/F3 proliferation assay (CellTiter-Glo viability), EGFR mutant alleles; format: cell-based, murine; settings: Mus musculus
Description: (§2) Ba/F3 Cell Model Generation and Proliferation Assays
as §1

[3] = molecular target: EGFR del19 T790M C797S protein in Ba/F3 cells (Homo sapiens, UniProt P00533, C797S/DEL746-750/T790M); assay: pEGFR assay (AlphaScreen Surefire, EGFR Tyr1068 phosphorylation); format: cell-based
EGFR del19 T790M C797S protein in Ba/F3 cells, sequence (P00533 with tags, fused parts or gaps C797S/DEL746-750/T790M limits assumed): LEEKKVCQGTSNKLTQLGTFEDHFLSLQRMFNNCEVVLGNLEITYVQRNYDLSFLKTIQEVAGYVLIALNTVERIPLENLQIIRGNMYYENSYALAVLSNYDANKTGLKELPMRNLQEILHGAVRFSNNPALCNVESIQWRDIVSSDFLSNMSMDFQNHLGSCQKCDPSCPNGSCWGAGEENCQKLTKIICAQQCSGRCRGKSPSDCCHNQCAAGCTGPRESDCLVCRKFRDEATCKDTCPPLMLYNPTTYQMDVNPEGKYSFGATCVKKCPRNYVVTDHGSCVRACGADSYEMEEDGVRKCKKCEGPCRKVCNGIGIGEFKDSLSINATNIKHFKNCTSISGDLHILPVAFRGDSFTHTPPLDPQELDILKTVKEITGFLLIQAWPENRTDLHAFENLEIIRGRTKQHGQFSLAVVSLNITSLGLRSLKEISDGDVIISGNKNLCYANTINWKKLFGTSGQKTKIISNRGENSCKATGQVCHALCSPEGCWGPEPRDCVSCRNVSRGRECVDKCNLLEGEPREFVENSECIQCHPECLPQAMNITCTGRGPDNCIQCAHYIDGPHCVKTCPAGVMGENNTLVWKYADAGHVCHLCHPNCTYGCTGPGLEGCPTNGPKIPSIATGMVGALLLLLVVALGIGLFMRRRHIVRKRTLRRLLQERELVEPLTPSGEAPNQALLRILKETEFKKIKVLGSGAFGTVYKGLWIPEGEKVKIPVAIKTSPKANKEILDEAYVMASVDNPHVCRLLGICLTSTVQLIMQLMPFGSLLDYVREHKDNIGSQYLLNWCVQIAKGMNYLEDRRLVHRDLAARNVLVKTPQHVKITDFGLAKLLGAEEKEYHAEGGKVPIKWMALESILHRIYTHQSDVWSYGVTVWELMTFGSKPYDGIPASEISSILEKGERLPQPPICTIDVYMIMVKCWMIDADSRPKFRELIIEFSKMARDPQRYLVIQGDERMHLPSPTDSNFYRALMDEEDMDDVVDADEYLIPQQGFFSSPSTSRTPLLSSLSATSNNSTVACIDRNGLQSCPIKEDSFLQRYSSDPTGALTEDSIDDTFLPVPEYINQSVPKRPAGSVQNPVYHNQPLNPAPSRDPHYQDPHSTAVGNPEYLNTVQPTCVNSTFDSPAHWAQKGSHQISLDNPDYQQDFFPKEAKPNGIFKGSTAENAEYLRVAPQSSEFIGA
Method in brief: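 Transduced Ba/F3 cells, puromycin-selected and grown IL-3 independent, were treated with compound at 60.000 cells/well for 4 h at 37° C. Lysis followed for 20 min at room temperature, and Tyr1068 phospho-EGFR in lysate was detected after 2 h dark incubation. Results are IC50 values.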

EGFR wt = EGFR wt (Homo sapiens (Human), UniProt P00533); assay: Biochemical EGFR inhibition assay (TR-FRET, poly-GT substrate), EGFR wt
EGFR wt, sequence (P00533 25-1210): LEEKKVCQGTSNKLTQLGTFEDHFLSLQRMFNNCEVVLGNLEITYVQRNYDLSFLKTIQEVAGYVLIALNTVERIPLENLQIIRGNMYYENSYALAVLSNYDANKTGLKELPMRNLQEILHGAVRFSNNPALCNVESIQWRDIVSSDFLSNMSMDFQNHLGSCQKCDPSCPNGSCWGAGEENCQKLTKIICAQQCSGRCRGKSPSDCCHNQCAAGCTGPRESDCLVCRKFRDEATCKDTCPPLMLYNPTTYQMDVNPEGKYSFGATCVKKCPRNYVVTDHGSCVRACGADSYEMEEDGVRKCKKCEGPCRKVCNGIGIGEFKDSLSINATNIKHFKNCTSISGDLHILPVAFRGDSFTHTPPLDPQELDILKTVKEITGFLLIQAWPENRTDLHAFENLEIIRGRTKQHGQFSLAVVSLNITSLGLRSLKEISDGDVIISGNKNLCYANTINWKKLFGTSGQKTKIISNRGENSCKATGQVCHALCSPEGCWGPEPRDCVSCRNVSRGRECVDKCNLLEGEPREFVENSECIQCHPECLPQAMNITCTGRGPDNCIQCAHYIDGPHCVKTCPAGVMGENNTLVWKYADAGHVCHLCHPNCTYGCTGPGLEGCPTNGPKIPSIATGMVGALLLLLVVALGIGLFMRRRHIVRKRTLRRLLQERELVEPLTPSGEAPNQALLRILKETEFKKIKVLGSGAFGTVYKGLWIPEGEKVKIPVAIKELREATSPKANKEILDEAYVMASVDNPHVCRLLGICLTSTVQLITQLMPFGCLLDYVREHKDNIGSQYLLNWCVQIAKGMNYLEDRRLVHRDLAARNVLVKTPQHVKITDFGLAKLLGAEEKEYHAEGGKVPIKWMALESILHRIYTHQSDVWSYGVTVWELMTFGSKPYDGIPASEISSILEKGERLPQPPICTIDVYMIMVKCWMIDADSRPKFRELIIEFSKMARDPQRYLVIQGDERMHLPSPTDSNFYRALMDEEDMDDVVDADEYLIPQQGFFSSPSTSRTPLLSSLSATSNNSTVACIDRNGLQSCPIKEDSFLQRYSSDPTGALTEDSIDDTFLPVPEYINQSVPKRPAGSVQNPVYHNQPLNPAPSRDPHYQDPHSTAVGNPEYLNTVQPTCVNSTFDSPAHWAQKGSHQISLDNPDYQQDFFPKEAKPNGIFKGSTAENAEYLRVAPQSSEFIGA
Method in brief: (§3)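 Phosphorylation of tagged poly-GT substrate by EGFR forms measured at 5 μM and 100 μM ATP (final). Top compound concentration 100 μM, eleven fivefold dilutions, in duplicate. Results given as IC50.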

[4] = molecular target: EGFR (mutated) 695-1022, T790M, C797S, L858R (Homo sapiens (Human), UniProt P00533, C797S/L858R/T790M); assay: Biochemical EGFR inhibition assay (TR-FRET, poly-GT substrate), EGFR T790M C797S L858R
EGFR (mutated) 695-1022, T790M, C797S, L858R, sequence (P00533 695-1022 T790M/C797S/L858R): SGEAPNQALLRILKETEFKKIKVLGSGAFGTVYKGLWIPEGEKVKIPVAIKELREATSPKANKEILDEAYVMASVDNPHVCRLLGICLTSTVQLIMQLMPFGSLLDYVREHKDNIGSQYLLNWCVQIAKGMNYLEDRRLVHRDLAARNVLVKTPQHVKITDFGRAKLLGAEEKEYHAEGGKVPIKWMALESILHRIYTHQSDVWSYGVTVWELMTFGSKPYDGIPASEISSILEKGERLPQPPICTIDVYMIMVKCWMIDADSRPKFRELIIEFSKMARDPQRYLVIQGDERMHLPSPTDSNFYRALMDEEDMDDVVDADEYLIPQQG
Method in brief: as §3

[5] = test system: Ba/F3 cells with the wildtype EGFR; assay: Ba/F3 proliferation assay (CellTiter-Glo viability), wildtype EGFR with EGF; format: cell-based, murine; settings: Mus musculus, BaF3, Ba/F3 EGFR wt
Description: as §2, §1

[6] = molecular target: EGFR (d746-750 T790M C797S) (Homo sapiens (Human), UniProt P00533, C797S/DEL746-750/T790M); assay: Biochemical EGFR inhibition assay (TR-FRET, poly-GT substrate), EGFR d746-750 T790M C797S
EGFR (d746-750 T790M C797S), sequence (P00533 other isoform, or with tags, fused parts or gaps T790M/C797S/del 1-694/del 746-750 limits assumed): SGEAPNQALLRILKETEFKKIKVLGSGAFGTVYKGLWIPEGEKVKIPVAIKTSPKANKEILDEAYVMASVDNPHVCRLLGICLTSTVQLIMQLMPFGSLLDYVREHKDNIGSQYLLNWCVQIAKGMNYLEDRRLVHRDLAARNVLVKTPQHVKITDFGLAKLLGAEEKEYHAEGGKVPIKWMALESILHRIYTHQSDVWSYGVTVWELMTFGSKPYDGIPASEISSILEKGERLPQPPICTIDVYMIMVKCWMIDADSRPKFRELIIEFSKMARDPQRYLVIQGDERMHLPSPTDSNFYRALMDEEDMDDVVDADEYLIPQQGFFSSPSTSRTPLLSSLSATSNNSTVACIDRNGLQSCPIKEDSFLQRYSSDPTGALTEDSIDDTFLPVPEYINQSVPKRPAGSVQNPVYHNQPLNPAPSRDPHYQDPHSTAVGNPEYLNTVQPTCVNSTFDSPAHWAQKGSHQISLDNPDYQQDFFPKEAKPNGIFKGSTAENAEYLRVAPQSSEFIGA
Description: Biochemical EGFR Inhibition Assays
Initially, the inhibitory effect of compounds according to the invention is measured in biochemical assays which measure the phosphorylation activity of EGFR enzyme forms on poly-GT substrate in the presence of different concentrations of ATP (5 μM and 100 μM final assay concentration).
The following enzyme forms of EGFR are representative examples that can be used in these assays at the given concentrations:
For the chosen highest assay concentration of 100 μM, 150 nL of compound solution is transferred from a 10 mM DMSO compound stock solution. A series of eleven fivefold dilutions per compound is transferred to the assay plate, compound dilutions are tested in duplicates. DMSO is added as backfill to a total volume of 150 nL. The assay runs on a fully automated robotic system.
These biochemical EGFR enzyme form compound dose-response assays quantify the kinase activity via phosphorylation of a tagged poly-GT substrate. The results of the assay are provided as IC50 values.

EGFR M+ NSCLC patients = settings: cited from earlier work; for objective response rate: EGFR M+ NSCLC patients treated in 1st line
[7] = test system: EGFR M+ T790M-positive NSCLC patients; settings: 2nd line, cited from earlier work
[8] = BaF3, Ba/F3 EGFR L858R C797S, read-out: IC50 EGFR L858R C797S
[9] = BaF3, Ba/F3 EGFR L858R T790M C797S, read-out: IC50 EGFR L858R T790M C797S
[10] = BaF3, Ba/F3 EGFR L858R T790M, read-out: IC50 EGFR L858R T790M
[11] = BaF3, Ba/F3 EGFR L858R, read-out: IC50 EGFR L858R
[12] = BaF3, Ba/F3 EGFR del19, read-out: IC50 EGFR del19
[13] = BaF3, Ba/F3 EGFR del19 C797S, read-out: IC50 EGFR del19 C797S
[14] = BaF3, Ba/F3 EGFR del19 T790M C797S, read-out: IC50 EGFR del19 T790M C797S
[15] = BaF3, Ba/F3 EGFR del19 T790M, read-out: IC50 EGFR del19 T790M
[16] = read-out: wt (5 μM ATP) IC50, 5 μM ATP
[17] = read-out: wt (100 μM ATP) IC50, 100 μM ATP
[18] = read-out: LR_TM_CS (5 μM ATP) IC50, 5 μM ATP
[19] = read-out: LR_TM_CS (100 μM ATP) IC50, 100 μM ATP

Compound	pIC50 [1]	pIC50 [2, 8]	pIC50 [2, 9]	pIC50 [2, 10]	pIC50 [2, 11]	pIC50 [2, 12]	pIC50 [2, 13]	pIC50 [2, 14]	pIC50 [2, 15]	pIC50 [3]	pIC50 (EGFR wt; [16])	pIC50 [4, 18]	pIC50 [5]	also measured
COc1cc2ncnc(Nc3ccc(F)c(Cl)c3)c2cc1NC(=O)/C=C/CN1CCCCC1 [dacomitinib, reference compound]													9.19	
C#Cc1cccc(Nc2ncnc3cc(OCCOC)c(OCCOC)cc23)c1 [erlotinib]														objective response rate (EGFR M+ NSCLC patients): 60-85%
Cc1cc(C(=O)Nc2nc3cccc(Cl)c3n2[C@@H]2CCCCN(C(=O)/C=C/CN(C)C)C2)ccn1 [nazartinib, reference compound]	< 5.30												7.02	
C=CC(=O)Nc1cc(Nc2nccc(-c3cn(C)c4ccccc34)n2)c(OC)cc1N(C)CCN(C)C [osimertinib]														patients responding to treatment ([7]; previously treated with earlier generation EGFR TKI): Approximately 70%; average duration until disease progression [7]: 10 months; objective response rate (EGFR M+ NSCLC patients): 60-85%; average duration until disease progression (EGFR M+ NSCLC patients; previously untreated EGFR M+ NSCLC patients): 19 months

Now from value to molecule, other results behind:

pIC50 [1]	pIC50 [2, 8]	pIC50 [2, 9]	pIC50 [2, 10]	pIC50 [2, 11]	pIC50 [2, 12]	pIC50 [2, 13]	pIC50 [2, 14]	pIC50 [2, 15]	pIC50 [3]	pIC50 (EGFR wt; [16])	pIC50 [4, 18]	pIC50 [5]	Compound	also measured
5.19	6.54	6.55	6.39	6.56	7.34	7.68	7.33	6.77	8.05	6.90	9.10	5.65	Cn1cc(-c2cc(C(=O)/N=c3\[nH]c4ccccc4n3C3CCCCC3)ccn2)cn1 [I-015]	pIC50 (EGFR wt; [17]): 6.94; pIC50 [4, 19]: 7.98; pIC50 ([6]; 100 μM ATP): 8.70
5.10	7.28	7.32	7.10	7.41	7.96	8.04	7.92	7.48	9.00	7.49	9.40	6.27	Cn1cc(-c2cc(C(=O)/N=c3\[nH]c4ccccc4n3[C@H]3CC[C@@H](O)CC3)ccn2)cn1 [I-048]	pIC50 (EGFR wt; [17]): 5.88; pIC50 [4, 19]: 8.24
5.06	7.29	6.84	6.75	7.42	8.04	8.15	7.63	7.28	8.40	7.90	9.30	6.14	COc1ccccc1-c1cc(C(=O)/N=c2\[nH]c3cc(C)ccc3n2[C@H]2CC[C@@H](O)CC2)ccn1 [I-109]	pIC50 (EGFR wt; [17]): 6.26; pIC50 [4, 19]: 8.06
5.04	7.00	6.86	6.75	7.04	7.78	8.06	7.68	7.14	8.70	6.97	9.10	5.69	Cn1cc(-c2cc(C(=O)/N=c3\[nH]c4ccccc4n3[C@H]3CCC[C@H](O)C3)ccn2)cn1 [I-137]	
									8.40	5.69	8.74		Cc1cc(C(=O)/N=c2\[nH]c3ccc(CN4CCOCC4)cc3n2[C@H]2CC[C@@H](O)CC2)cc(-c2cnn(C)c2)n1 [I-223]	pIC50 ([6]; 5 μM ATP): 9.30
									8.52	6.57	9.30		Cc1cc(C(=O)/N=c2\[nH]c3ccc(CN4CCN(C)CC4)cc3n2C2CCCCC2)cc(-c2cnn(C)c2)n1 [I-224]	pIC50 ([6]; 5 μM ATP): 9.70
									8.70	6.79	9.40		Cc1cc(C(=O)/N=c2\[nH]c3ccc(C4CCN(C)CC4)cc3n2[C@H]2CC[C@@H](O)CC2)cc(-c2cnn(C)c2)n1 [I-225]	pIC50 ([6]; 5 μM ATP): 9.70
